Measured values from paper PMC11903690 (Scientific Reports, 2025).

Legend:
[1] = system: high fat diet-induced obesity mice models; conditions: oral intake; cited from earlier work
[2] = system: SARS-CoV-2 (WK-521, ancestral strain); assay: SARS-CoV-2 inhibition MTT assay in Vero E6/TMPRSS2 cells; assay type: cell-based; conditions: for EC50: Severe acute respiratory syndrome coronavirus 2, VeroE6/TMPRSS2; for Selectivity index: between EC50 and CC50, WK-521, Vero E6/TMPRSS2 cells
[3] = system: sphingomyelin on the plasma membrane in Vero E6 cells; assay type: cell-based; conditions: 5 μM, 30 min, versus control (DMSO)
[4] = system: SARS-CoV-2 mediated cell-to-cell fusion; assay type: cell-based; conditions: 0.8 to 25 μM; 24 h
[5] = in vitro; conditions: African green monkey

For `O=C(CCCCCCCCc1ccc(O)c(O)c1)c1c(O)cccc1O` [Compound 1, Malabaricone C], the “efficacies in high fat diet-induced obesity mice” value [1] is given as “reducing weight gain, improving glucose tolerance, and reducing hepatic steatosis”, the EC50 [2] is given as 1500 nM and the Selectivity index [2] is given as 9.7. The “fluorescence intensity of EGFP-NT-Lys on the plasma membrane (clustered SM)” value [3] was “lower than that of the control”, the “fluorescence intensity of EqtII-EGFP (dispersed SM)” value [3] was “almost no difference” and the “inhibition of cell fusion (yellow hypertrophic cells)” value [4] was “increased in a dose-dependent manner”. The CC50 [5] was 14 µM.
In the case of `CCCCCC/C=C\CCCCCCCc1cccc(O)c1C(=O)O` [Ginkgolic acid], the EC50 [2] is reported as 7900 nM.
With `CC(C)C(=O)OC[C@H]1O[C@@H](n2ccc(NO)nc2=O)[C@H](O)[C@@H]1O` [Molnupiravir] the EC50 [2] was 150 nM, the Selectivity index [2] was 33.8 and the CC50 [5] was 5.3 µM.
For `CCC(CC)COC(=O)[C@H](C)N[P@](=O)(OC[C@H]1O[C@@](C#N)(c2ccc3c(N)ncnn23)[C@H](O)[C@@H]1O)Oc1ccccc1` [Remdesivir], the EC50 [2] was 500 nM and the CC50 [5] was greater than 10 µM.
